Where two headings read alike, the source gives them in different places.
How the values were obtained:
IL-1β [1] = assay: Zymosan A-induced rat pericarditis model; format: in vivo, SD rats
Description: Test Example 5 Zymosan A-Induced Rat Pericarditis Model Test
In this experiment, SD rats were used and 150 μL of a mixture of 50 mg/mL ZymosanA and normal saline was injected into the pericardial cavity to induce a rat pericarditis model and conduct a pharmacodynamic observation experiment. The day of modeling was designated as Day 1. The animals were weighed and randomly divided into groups one day before modeling, namely, G1 normal group, G2 model group, G3 compound 062-10 mg/kg group, G4 compound 062-30 mg/kg group, G5 colchicine-100 μg/kg group, with 7+1* animals in each group (one extra animal was reserved for each group, considering that animals may die during model establishment). After the model was established, oral administration began, once a day, for 7 consecutive days. At the end of the experiment, the animals were euthanized, the muscles were cut open at the third and fourth rib regions to expose the heart, the pericardium was carefully lifted with forceps, and as much pericardial effusion (if any) as possible was extracted with a 1 ml syringe. The pericardial effusion was centrifuged at 5000 rpm at 4° C. for 5 min, and the supernatant was frozen at −80° C. for later detection of IL-1β levels. After the pericardial effusion was collected, the heart was perfused and removed (while ensuring the integrity of the pericardium), fixed with 10% formalin for subsequent pathological examination.

NLRP3 = biological target: T1, NLRP3 (Homo sapiens, UniProt Q96P20); assay: IC50 of NLRP3 inhibitors in reducing IL-1β secretion by THP-1 cells (PMA, LPS, nigericin; ELISA); format: cell-based; conditions: compound + nigericin 1 h
T1 construct: endogenous in cells; host or cells: THP-1 (human monocyte, PMA-differentiated, LPS-primed, nigericin-stimulated)
Description: Test Example 1 Experiment on Detection of IC50 of NLRP3 Inhibitors in Reducing the Level of IL-1β Secretion by THP-1 Cells
In this experiment, we use the human monocyte THP-1 to study the inhibitory activity of NLRP3 inhibitor on the secretion of IL-Iβ by cells. Human THP-1 cells are treated with crotonol-12-tetradecanoate-13-acetate (PMA) to differentiate into mature macrophage models. Then, according to the two stages of inflammasome formation in cells (assembly and activation), the cells are stimulated with lipopolysaccharide (LPS) and nigericin in turn, ultimately promoting the extracellular release of IL-1β by THP-1 cells. The first stage of inflammasome formation involves stimulating cells with LPS (lipopolysaccharide), an agonist of the Toll-like receptor TLR4, to activate the expression of the inflammasome-associated proteins NLRP3, caspase 1, and pro-IL-1β, a precursor of IL-1β. The second stage of inflammasome formation involves the addition of the potassium ion carrier nigericin, which causes a series of membrane potential changes in THP-1 cells, destroys the cell membrane structure, causes the efflux of cellular potassium ions, further stimulates the oligomerization of NLRP3 monomers to form NLRP3 oligomers, and begins to recruit ASC and pro-caspase-1 to assemble the NLRP3 inflammasome complex containing a large amount of pro-caspase-1. The pro-caspase-1 on the activated NLRP3 inflammasome is enzymatically self-activated to form a large amount of active caspase-1. The activated caspase-1 further enzymatically promotes the conversion of pro-IL-1β into mature IL-1β that can be secreted.
(1) Cell suspensions were collected. The cells were centrifuged at 1000 rpm for 4 min, the supernatant was discarded, the cells were resuspended with 1 mL of test medium, and then the cell culture medium was gently pipetted up and down with a pipette and its tip to break up the cell aggregates. After counting the cells, the THP-1 cells were resuspended with complete RPMI medium 1640 containing PMA and seeded into 96-well plates and cultured in a 37° C., 5% CO2 incubator for 72 h.
(2) The culture medium was taken out from each well with an automatic plate washer dispenser EL406 and each well was rinsed twice with PBS. To each well, 96 μL of RPMI 1640 medium containing LPS was added. The cells were cultured in a 37° C., 5% CO2 incubator for 4 h.
(3) To each well, 2 μL of the compound and 2 μL of nigericin sodium salt were added, and the final compound concentration selected was 5000 nM, 1000 nM, 200 nM, 40 nM, 8 nM, 1.6 nM, 0.32 nM, 0 nM, respectively. The cells were cultured in a 37° C., 5% CO2 incubator for 1 h.
(4) An appropriate amount of supernatant was taken out, diluted 100 times, and the content of IL-1β in the supernatant was detected using Human IL-1 beta Valukine ELISA kit.

[2] = test system: MSU-induced acute rat gouty arthritis model; assay: MSU-induced rat acute gouty arthritis model; format: in vivo, SD rats; conditions: FIG. 1
Description: Test Example 3 MSU-Induced Rat Gouty Arthritis Model Evaluation Test
In this test, male SD rats were used to establish an acute gouty arthritis model by injecting 64 mg/mL sodium urate (MSU) crystal suspension into the right hind ankle joint cavity of the rats. The animals were randomly divided into normal control group, model control group, different dose groups of test compound, 7 rats in each group. The compound group was orally administered with the compound 1 h before and after modeling, and the normal control group and model control group were given an equal amount of vehicle. The foot circumference and foot diameter were measured before and 24 h after modeling.

IL-1β [3] = assay: Mouse acute peritonitis model (LPS/ATP), IL-1β in peritoneal lavage fluid and blood; format: in vivo, C57BL/6 mice; conditions: 10 mg/kg oral; for inhibition at 10 mg/kg: Mus musculus, vs vehicle group
Description: Test Example 2: Mouse Acute Peritonitis Model Evaluation Experiment
Male C57BL/6 mice were orally administered with a 10 mg/kg dose of the test compound or control vehicle, and then injected intraperitoneally with 1 μg of E. coli 055: B5 ultrapure lipopolysaccharide (LPS) suspension 1 h later, followed by an intraperitoneal injection of 0.5 ml of 30 mM disodium salt ATP suspension (in PBS, the pH of the ATP solution was adjusted to 7.2 before injection) 2 h later. After 30 min, all animals would be euthanized by carbon dioxide, and blood and peritoneal lavage fluid would be collected. The peritoneal lavage fluid was kept at 4° C.
Preparation of peritoneal lavage fluid: The peritoneal cavity would be lavaged with ice-cold PBS (3 mL) containing 25 U/mL heparin and 10% heat-inactivated FBS. Prior to use, one tablet of the protease inhibitor mixture was added per 50 mL of buffer. The collected lavage fluid would be centrifuged (centrifugation conditions: 1000g, 4° C., 10 min) to remove cells and cell debris, and the clarified samples would be stored at −80° C. for measurement of cytokine IL-1β.
The mouse IL-1β/IL-1F2 DuoSet ELISA kit (R&D Systems) was used to measure the changes in IL-1β cytokine levels in peritoneal lavage fluid and serum. By comparing with the Vehical group, the inhibition rate of the compound on IL-1β was calculated.

T1 sequence (Q96P20 whole entry): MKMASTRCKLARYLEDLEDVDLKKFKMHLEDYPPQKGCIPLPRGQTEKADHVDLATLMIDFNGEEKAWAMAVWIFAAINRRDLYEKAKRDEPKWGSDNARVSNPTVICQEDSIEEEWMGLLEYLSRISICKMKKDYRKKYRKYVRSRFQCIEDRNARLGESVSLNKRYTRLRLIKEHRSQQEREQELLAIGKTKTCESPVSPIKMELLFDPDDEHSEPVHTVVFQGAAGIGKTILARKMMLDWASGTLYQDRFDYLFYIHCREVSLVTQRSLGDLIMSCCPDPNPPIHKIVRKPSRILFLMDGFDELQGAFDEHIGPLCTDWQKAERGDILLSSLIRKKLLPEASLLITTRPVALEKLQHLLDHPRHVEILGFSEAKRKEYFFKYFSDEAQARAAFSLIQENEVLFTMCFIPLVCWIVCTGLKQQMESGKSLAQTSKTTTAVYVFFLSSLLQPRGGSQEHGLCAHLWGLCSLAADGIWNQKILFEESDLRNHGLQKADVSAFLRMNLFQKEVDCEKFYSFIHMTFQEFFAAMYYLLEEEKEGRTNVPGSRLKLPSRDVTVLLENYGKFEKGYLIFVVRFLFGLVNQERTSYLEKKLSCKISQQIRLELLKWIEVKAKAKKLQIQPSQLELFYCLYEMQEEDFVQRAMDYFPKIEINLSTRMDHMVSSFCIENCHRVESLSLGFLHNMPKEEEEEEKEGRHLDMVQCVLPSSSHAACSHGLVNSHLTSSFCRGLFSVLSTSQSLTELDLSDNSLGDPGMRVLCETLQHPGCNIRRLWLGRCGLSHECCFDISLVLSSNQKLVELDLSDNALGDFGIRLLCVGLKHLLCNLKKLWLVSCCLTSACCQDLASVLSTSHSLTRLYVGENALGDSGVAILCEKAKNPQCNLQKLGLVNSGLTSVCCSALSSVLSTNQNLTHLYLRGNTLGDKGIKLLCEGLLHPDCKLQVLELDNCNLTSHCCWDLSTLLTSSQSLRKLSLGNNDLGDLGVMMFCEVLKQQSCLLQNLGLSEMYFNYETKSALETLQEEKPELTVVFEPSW

Compound: CC#Cc1ccc2c(-c3ccc(Cl)cc3O)nnc(NC[C@H](O)CO)c2c1 [Compound 062, (S)-3-((4-(4-chloro-2-hydroxyphenyl)-7-(prop-1-yn-1-yl)phthalazin-1-yl)amino) propan-1,2-diol]
- degree of pericardial inflammation (IL-1β [1]; 10 and 30 mg/kg oral once a day, 7 days, FIG. 3): improved the degree of pericardial inflammation
- production of IL-1β in the pericardium and pericardial effusion (IL-1β [1]; 10 and 30 mg/kg oral once a day, 7 days, FIG. 4): significantly inhibited the production of IL-1β in the pericardium and pericardial effusion
- effect compared with colchicine (IL-1β [1]; colchicine 100 μg/kg): comparable to that of colchicine
- IC50 (NLRP3): 9.7 nM
- effect on ankle joint swelling compared with control compound [2]: significantly better than that of the control compound
- ankle joint swelling ([2]; oral, 1 h before and after modeling, 24 h after modeling): dose-dependent improvement in ankle joint swelling
- inhibitory effect on IL-1β in the in vivo animal model (in words) (IL-1β [3]): Conclusion: Some compounds showed inhibitory effects on IL-1β in the in vivo animal model evaluation experiment, among which compound 062 had the most significant inhibitory effect.
- inhibition at 10 mg/kg (IL-1β [3]; read-out: IL-1β Peritoneal lavage fluid (inhibition rate)): 94%
- inhibition at 10 mg/kg (IL-1β [3]; read-out: IL-1β Plasma (inhibition rate)): 96%

From patent US20260216182A1, “PYRIDAZINE NLRP3 INHIBITOR COMPOUND, PHARMACEUTICAL COMPOSITION, AND PREPARATION METHOD THEREFOR AND USE THEREOF” (CHANGCHUN GENESCIENCE PHARMACEUTICAL CO., LTD., priority 2022, published 2026)
